Source: US11603377B2, “MTORC1 modulators and uses thereof” (Aeovian Pharmaceuticals, Inc., priority 2020, dated 2023)

How the values were obtained:
FKBP12 = FKBP12 (Homo sapiens (Human), UniProt P62942); test: SPR assay to determine binding affinity to FKBP12 (direct binding); settings: immobilized biotinylated avi-FKBP12
[1] = target: FKBP51 / FRB ternary complex (Homo sapiens (Human), UniProt P42345+Q13451); test: SPR assay to characterize ternary complex formation with FKBP51 (FRB binding to rapalog-saturated FKBP51); settings: FRB dilutions with 100 nM rapalog on immobilized FKBP51
How it was run: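 SPR with biotinylated avi-FKBP51 on streptavidin chip (~200 RU); FRB (0.00011-20 μM, 3-fold series) injected with 100 nM rapalog, A-B-A mode keeping FKBP saturated with rapalog.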

FKBP51 = FKBP51 (Homo sapiens (Human), UniProt Q13451); test: SPR assay to determine binding affinity to FKBP51 (direct binding); settings: immobilized biotinylated avi-FKBP51
How it was run: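 Biotinylated avi-FKBP51 captured on streptavidin chip to about 2000 RU. Compounds injected at 0.5-1000 nM (8 points, 3-fold) for 120 s contact and 3600 s dissociation in 50 mM HEPES pH 7.5, 150 mM NaCl, 2 mM MgCl2, 1 mM DTT, 0.05% Tween-20, 1% DMSO.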

mTORC1 = mTORC1 (Homo sapiens (Human), UniProt P42345+P62942); test: mTORC1 inhibition, AlphaLISA of Phospho-p70 S6 kinase (p70S6K pT389) in PC-3 cells; type: cell-based; settings: inhibition of p70S6K pT389 levels
[2] = target: FKBP12 / FRB ternary complex (Homo sapiens (Human), UniProt P42345+P62942); test: SPR assay to characterize ternary complex formation with FKBP12 (FRB binding to rapalog-saturated FKBP12); settings: FRB dilutions with 100 nM rapalog on immobilized FKBP12
How it was run: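 Biotinylated avi-FKBP12 immobilized (~100 RU) on streptavidin chip; A-B-A injections kept FKBP12 saturated with 100 nM rapalog while FRB (0.00011–20 μM, 3-fold, 12 points) was injected 120 s.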

mTORC2 = mTORC2 (Homo sapiens (Human), UniProt P42345+P62942); test: mTORC2 inhibition, AlphaLISA of Phospho-AKT (pAKT pS473) in PC3 cells; type: cell-based

FKBP51, sequence (Q13451 whole entry): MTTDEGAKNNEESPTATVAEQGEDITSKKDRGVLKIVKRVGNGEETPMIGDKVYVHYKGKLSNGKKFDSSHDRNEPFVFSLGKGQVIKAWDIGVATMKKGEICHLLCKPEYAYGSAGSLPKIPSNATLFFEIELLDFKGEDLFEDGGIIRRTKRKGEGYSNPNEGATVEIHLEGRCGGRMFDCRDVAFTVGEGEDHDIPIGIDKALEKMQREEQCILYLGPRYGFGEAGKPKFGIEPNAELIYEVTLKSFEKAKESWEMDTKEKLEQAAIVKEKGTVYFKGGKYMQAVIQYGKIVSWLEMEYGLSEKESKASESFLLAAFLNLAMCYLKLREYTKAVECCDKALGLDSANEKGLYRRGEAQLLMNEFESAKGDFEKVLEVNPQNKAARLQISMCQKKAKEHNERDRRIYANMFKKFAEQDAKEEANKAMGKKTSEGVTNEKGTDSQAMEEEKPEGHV
FKBP12, sequence (P62942 whole entry): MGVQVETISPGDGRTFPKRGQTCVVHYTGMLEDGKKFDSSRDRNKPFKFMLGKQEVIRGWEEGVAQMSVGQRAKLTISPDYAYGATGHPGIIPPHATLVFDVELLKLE

Structure (SMILES)	Kd (FKBP12)	Kd [1]	Kd (FKBP51)	IC50 (mTORC1)	Kd [2]	mTORC2 % inhibition at 1 uM (mTORC2)
COCCOCCOCCS(=O)(=O)N[C@H]1C[C@@H]2CC[C@@H](C)[C@@](O)(O2)C(=O)C(=O)N2CCCC[C@H]2C(=O)O[C@H]([C@H](C)C[C@@H]2CC[C@@H](O)[C@H](OC)C2)CC(=O)[C@H](C)/C=C(\C)[C@@H](O)[C@@H](OC)C(=O)[C@H](C)C[C@H](C)/C=C/C=C/C=C/1C [Compound 25]	< 0.0003 µM	> 0.8 µM	0.01 to 0.1 µM	0.0001 to 0.0008 µM	0.3 to 0.8 µM	A (A ≤20% inhibition at 1 micro Molar (uM))
CO[C@@H]1C[C@H](C[C@@H](C)[C@@H]2CC(=O)[C@H](C)/C=C(\C)[C@@H](O)[C@@H](OC)C(=O)[C@H](C)C[C@H](C)/C=C/C=C/C=C(\C)[C@@H](OC3CCS(=O)(=O)C3)C[C@@H]3CC[C@@H](C)[C@@](O)(O3)C(=O)C(=O)N3CCCC[C@H]3C(=O)O2)CC[C@H]1O (stereo partly drawn) [Compound 26]	< 0.0003 µM	> 0.8 µM	> 0.1 µM	> 0.0008 µM	> 0.8 µM	A (A ≤20% inhibition at 1 micro Molar (uM))
CO[C@@H]1C[C@H](C[C@@H](C)[C@@H]2CC(=O)[C@H](C)/C=C(\C)[C@@H](O)[C@@H](OC)C(=O)[C@H](C)C[C@H](C)/C=C/C=C/C=C(\C)[C@@H](OCCC3CCS(=O)(=O)C3)C[C@@H]3CC[C@@H](C)[C@@](O)(O3)C(=O)C(=O)N3CCCC[C@H]3C(=O)O2)CC[C@H]1O (stereo partly drawn) [Compound 27]	< 0.0003 µM	> 0.8 µM	0.01 to 0.1 µM	> 0.0008 µM	> 0.8 µM	A (A ≤20% inhibition at 1 micro Molar (uM))
CO[C@@H]1C[C@H](C[C@@H](C)[C@@H]2CC(=O)[C@H](C)/C=C(\C)[C@@H](O)[C@@H](OC)C(=O)[C@H](C)C[C@H](C)/C=C/C=C/C=C(\C)[C@@H](OCCC3CCO3)C[C@@H]3CC[C@@H](C)[C@@](O)(O3)C(=O)C(=O)N3CCCC[C@H]3C(=O)O2)CC[C@H]1O (stereo partly drawn) [Compound 28]	< 0.0003 µM	> 0.8 µM	0.01 to 0.1 µM	0.0001 to 0.0008 µM	> 0.8 µM	B (B>20% and less than 40% inhibition at 1 uM)
CO[C@@H]1C[C@H](C[C@@H](C)[C@@H]2CC(=O)[C@H](C)/C=C(\C)[C@@H](O)[C@@H](OC)C(=O)[C@H](C)C[C@H](C)/C=C/C=C/C=C(\C)[C@@H](OCC3CCS(=O)(=O)C3)C[C@@H]3CC[C@@H](C)[C@@](O)(O3)C(=O)C(=O)N3CCCC[C@H]3C(=O)O2)CC[C@H]1O (stereo partly drawn) [Compound 30]	< 0.0003 µM	> 0.8 µM	0.01 to 0.1 µM	> 0.0008 µM	> 0.8 µM	A (A ≤20% inhibition at 1 micro Molar (uM))
CO[C@@H]1C[C@H](C[C@@H](C)[C@@H]2CC(=O)[C@H](C)/C=C(\C)[C@@H](O)[C@@H](OC)C(=O)[C@H](C)C[C@H](C)/C=C/C=C/C=C(\C)[C@@H](OCC3CCOC3)C[C@@H]3CC[C@@H](C)[C@@](O)(O3)C(=O)C(=O)N3CCCC[C@H]3C(=O)O2)CC[C@H]1O (stereo partly drawn) [Compound 31]	< 0.0003 µM	> 0.8 µM	0.01 to 0.1 µM	0.0001 to 0.0008 µM	> 0.8 µM	A (A ≤20% inhibition at 1 micro Molar (uM))
CO[C@@H]1C[C@H](C[C@@H](C)[C@@H]2CC(=O)[C@H](C)/C=C(\C)[C@@H](O)[C@@H](OC)C(=O)[C@H](C)C[C@H](C)/C=C/C=C/C=C(\C)[C@@H](OCCC3CCOC3)C[C@@H]3CC[C@@H](C)[C@@](O)(O3)C(=O)C(=O)N3CCCC[C@H]3C(=O)O2)CC[C@H]1O (stereo partly drawn) [Compound 32]	< 0.0003 µM	> 0.8 µM	0.01 to 0.1 µM	0.0001 to 0.0008 µM	0.3 to 0.8 µM	A (A ≤20% inhibition at 1 micro Molar (uM))
COC1CC(CC(C)C2CC(=O)C(C)C=C(C)C(O)C(OC)C(=O)C(C)CC(C)C=CC=CC=C(C)C(OC3CCOCC3)CC3CCC(C)C(O)(O3)C(=O)C(=O)N3CCCCC3C(=O)O2)CCC1O (stereo not drawn) [Compound 33]	< 0.0003 µM	> 0.8 µM	0.01 to 0.1 µM	> 0.0008 µM	> 0.8 µM	A (A ≤20% inhibition at 1 micro Molar (uM))
CO[C@@H]1C[C@H](C[C@@H](C)[C@@H]2CC(=O)[C@H](C)/C=C(\C)[C@@H](O)[C@@H](OC)C(=O)[C@H](C)C[C@H](C)/C=C/C=C/C=C(\C)[C@@H](OCCC3COC3)C[C@@H]3CC[C@@H](C)[C@@](O)(O3)C(=O)C(=O)N3CCCC[C@H]3C(=O)O2)CC[C@H]1O [Compound 34]	< 0.0003 µM	> 0.8 µM	0.01 to 0.1 µM	> 0.0008 µM	> 0.8 µM	A (A ≤20% inhibition at 1 micro Molar (uM))
COC1CC(CC(C)C2CC(=O)C(C)C=C(C)C(O)C(OC)C(=O)C(C)CC(C)C=CC=CC=C(C)C(OC3CCOC3)CC3CCC(C)C(O)(O3)C(=O)C(=O)N3CCCCC3C(=O)O2)CCC1O (stereo not drawn) [Compound 35]	< 0.0003 µM	> 0.8 µM	< 0.01 µM	> 0.0008 µM	> 0.8 µM	A (A ≤20% inhibition at 1 micro Molar (uM))
COC1CC(CC(C)C2CC(=O)C(C)C=C(C)C(O)C(OC)C(=O)C(C)CC(C)C=CC=CC=C(C)C(OCC3CCC3)CC3CCC(C)C(O)(O3)C(=O)C(=O)N3CCCCC3C(=O)O2)CCC1O (stereo not drawn) [Compound 36]	< 0.0003 µM	> 0.8 µM	> 0.1 µM	0.0001 to 0.0008 µM	0.3 to 0.8 µM	B (B>20% and less than 40% inhibition at 1 uM)
COC1CC(CC(C)C2CC(=O)C(C)C=C(C)C(O)C(OC)C(=O)C(C)CC(C)C=CC=CC=C(C)C(OCCC3COC3)CC3CCC(C)C(O)(O3)C(=O)C(=O)N3CCCCC3C(=O)O2)CCC1OCCO (stereo not drawn) [Compound 38]	0.0003 to 0.001 µM	> 0.8 µM	0.01 to 0.1 µM	0.0001 to 0.0008 µM	> 0.8 µM	A (A ≤20% inhibition at 1 micro Molar (uM))
COC1CC(CC(C)C2CC(=O)C(C)C=C(C)C(O)C(OC)C(=O)C(C)CC(C)C=CC=CC=C(C)C(OCC3CC3)CC3CCC(C)C(O)(O3)C(=O)C(=O)N3CCCCC3C(=O)O2)CCC1O (stereo not drawn) [Compound 39]	0.0003 to 0.001 µM	> 0.8 µM	> 0.1 µM	0.0001 to 0.0008 µM	0.3 to 0.8 µM	B (B>20% and less than 40% inhibition at 1 uM)
COC1CC(CC(C)C2CC(=O)C(C)C=C(C)C(O)C(OC)C(=O)C(C)CC(C)C=CC=CC=C(C)C(OCC3CCCC3)CC3CCC(C)C(O)(O3)C(=O)C(=O)N3CCCCC3C(=O)O2)CCC1O (stereo not drawn) [Compound 40]	> 0.001 µM	> 0.8 µM	> 0.1 µM	0.0001 to 0.0008 µM	0.3 to 0.8 µM	A (A ≤20% inhibition at 1 micro Molar (uM))
COC1CC(CC(C)C2CC(=O)C(C)C=C(C)C(O)C(OC)C(=O)C(C)CC(C)C=CC=CC=C(C)C(OCC3CC(F)(F)C3)CC3CCC(C)C(O)(O3)C(=O)C(=O)N3CCCCC3C(=O)O2)CCC1O (stereo not drawn) [Compound 41]	0.0003 to 0.001 µM	> 0.8 µM	> 0.1 µM	> 0.0008 µM	> 0.8 µM	A (A ≤20% inhibition at 1 micro Molar (uM))
COC1CC(CC(C)C2CC(=O)C(C)C=C(C)C(O)C(OC)C(=O)C(C)CC(C)C=CC=CC=C(C)C(OCC3CC3)CC3CCC(C)C(O)(O3)C(=O)C(=O)N3CCCCC3C(=O)O2)CCC1OCCCO (stereo not drawn) [Compound 42]	> 0.001 µM	> 0.8 µM	> 0.1 µM	> 0.0008 µM	0.3 to 0.8 µM	A (A ≤20% inhibition at 1 micro Molar (uM))
